# Experimental data published in patent US10391070B2, “Compositions and methods for treating neurological diseases or injury” (MUSC FOUNDATION FOR RESEARCH DEVELOPMENT, priority 2012, dated 2019).
# Where two headings read alike, the source gives them in different places.
# Experiments:
# Type in all cases: cell-based, mouse
# [1] = In vitro neurotoxicity without glutamate (MTS cell viability); conditions: mouse, HT22 cells without glutamate, 24 hrs, MTS, concentration producing 50% toxicity, read-out: Toxicity TC50
# Method: (§1) The HT22 neuronal cell line is a subclone of HT4, derived from the mouse hippocampus (Morimoto and Koshland, 1990). […] HT22 cells were used. The cells were grown in Dulbecco's Modified Eagle's medium (DMEM/high glucose) supplemented with 10% fetal bovine serum (Hyclone) and 5 mL Antibiotic-Antimycotic (Amphotericin B, Penicillin, and Streptomycin; Invitrogen) at 37° C. in 5% CO2.
# (§2) Cell viability was assessed by the ability of the viable cells to metabolize 3-(4,5-dimethylthiazol-2-yl)-5-(3-carboxymethoxyphenyl)-2(4-sulfophenyl)2-H-tetrazolium, inner salt (MTS), as described previously (Cory et al., 1991). The metabolism of tetrazolium salts is often used to measure cellular proliferation, but in the system used here, it has been previously shown to correlate well with cell viability as determined by trypan blue exclusion and colony-forming assays (Davis and Maher, 1994). Briefly, HT-22 cells were seeded onto 96-well plates at 5.0×10^3 cells per well in 75 μL of medium and maintained at 37° C. in 5% CO2 overnight prior to the initiation of experimental treatments. For glutamate toxicity testing, cells were subsequently treated with 25 μL of medium containing glutamate (monosodium glutamate, Sigma, 1 M stock concentration in media, to achieve a final concentration of 10 mM) plus inhibitors (stock in DMSO) and maintained at 37° C. in 5% CO2. For t-BuOOH toxicity testing, cells were subsequently treated with 25 μL of medium containing t-BuOOH (Sigma, 10 mM stock concentration, to achieve a final concentration of 50 μM) plus inhibitors (stock in DMSO) and maintained at 37° C. in 5% CO2 for 3 hours, after which the media was removed, cells washed gently with HBSS, the media replaced with standard culture media, and the cells returned to incubation at 37° C. in 5% CO2. For both glutamate and t-BuOOH treatments, 10 μl of MTS solution was added to each well 24 hrs after initial treatment, and the cells were maintained in growth medium for 2 h at 37° C. Absorbance at 490 nm was subsequently measured by a SpectraMax 190 plate reader (Molecular Devices). The growth medium without cells in the presence of MTS solution was used as solution background and untreated cells were considered the controls. Cell viability was calculated as a percentage compared with untreated controls. EC50 determinations were based on 12-point titrations using GraphPad Prism, and each experiment was repeated at least four times. Morphology of HT22 cells following treatments was determined by phase-contrast microscopy. Digital images of cells grown on cell culture plates were captured at 10× magnification.
# HT22 cells [2] = assay: as above; conditions: for Safety Index TC50/PC50: HT22 cells; for CC50: HT22 cells without glutamate, 24 hrs, MTS, concentration producing 50% toxicity, read-out: Toxicity TC50
# Method: as §1, §2
# HT22 cells [3] = assay: In vitro neuroprotective activity against glutamate-induced cell death (MTS cell viability); conditions: Mus musculus, read-out: Protection PC50
# Method: as §1, §2
# The neuroprotective properties of VK and its derivatives were estimated through their protective effects against cell death in mouse neuronal HT22 cells induced by exposure to high levels of glutamate, which recapitulates a hallmark of the extracellular environment found in several neurodegenerative diseases and CNS injuries and is a well established model of neuronal oxidative stress. This investigation began by comparing the relative abilities of the two predominant naturally occurring forms of VK, VK1 and VK2, to prevent oxidative cell death. […] Several 1,4-naphthoquinones with various substitutions at the 2′ and 3′ positions were tested to determine the minimum structural requirement of the system and what the optimum scaffold for future developmental efforts and biological validation would be (FIG. 1B and Table 1). […] Substitution by a single methyl group at the 2′ position (VK3) improves the compound's ability to protect against cell death. Various other simple substituents at the 2′ and 3′ positions give the naphthoquinone structure the ability to prevent oxidative cell death at nanomolar concentrations (Table 1 and FIG. 16).
# [4] = HT-22, HT22 cells, 10 mM glutamate, 24 hrs, MTS, concentration producing 50% protection
# [5] = HT22 neuronal cells (without glutamate)
SMILES,CC50 at 24 h [1] [nM],Safety Index TC50/PC50 (HT22 cells [2]),EC50 (HT22 cells [3]; [4]) [nM],CC50 (HT22 cells [2]) [nM],"CC50 at 24 h [1, 5] [nM]","EC50 (HT22 cells [3]; HT-22, 24 h) [nM]"
"CC(=O)NC1=CC(=O)c2ccccc2C1=O [Compound 3a, N-(1,4-dioxo-1,4-dihydronaphthalen-2-yl)acetamide]",> 100000,162,616,,,
"O=C1C=C(NCc2ccncc2)C(=O)c2ccccc21 [Compound 2m, 2-((pyridin-4-ylmethyl)amino)naphthalene-1,4-dione]",,"1,111",72,80000,,
CC1=C(C)C(=O)c2ccccc2C1=O [Compound 1c],,254,118,30000,,
"CC(C)NC(=O)NC1=CC(=O)c2ccccc2C1=O [Compound 4b, 1-(1,4-dioxo-1,4-dihydronaphthalen-2-yl)-3-isopropylurea]",,125,64,,8000,
"O=C1C=CC(=O)c2ccccc21 [Compound 1a, 1,4-naphthoquinone, reference compound]",,12,1540,19000,,
"CC(C)C(=O)NC1=CC(=O)c2ccccc2C1=O [Compound 3d, N-(1,4-dioxo-1,4-dihydronaphthalen-2-yl)isobutyramide]",,0,> 1000,,8000,
O=C(Nc1ccccc1)c1coc2ccccc2c1=O [4-oxo-N-phenyl-4H-chromene-3-carboxamide],,,> 1000,,> 100000,
"NC1=CC(=O)c2ccccc2C1=O [Compound 1d, 2-amino-1,4-naphthoquinone]",,803,,49000,,61
"Cc1ccc(C(=O)NC2=CC(=O)c3ccccc3C2=O)cc1 [Compound 3h, N-(1,4-dioxo-1,4-dihydronaphthalen-2-yl)-4-methylbenzamide]",,63,382,,24000,
"CCCNC1=CC(=O)c2ccccc2C1=O [Compound 2e, 2-(propylamino)naphthalene-1,4-dione]",,91,328,30000,,
"O=C1C=C(NC(=O)C2CCCCC2)C(=O)c2ccccc21 [Compound 3f, N-(1,4-dioxo-1,4-dihydronaphthalen-2-yl)cyclohexanecarboxamide]",,51,275,,14000,
O=C(Nc1ccccc1)c1cc(=O)c2ccccc2o1 [4-oxo-N-phenyl-4H-chromene-2-carboxamide],,,> 1000,,> 100000,
O=C(O)C1=CC(=O)c2ccccc2C1=O [Compound 1f],,140,716,> 100000,,
"O=C(NC1=CC(=O)c2ccccc2C1=O)c1ccccc1 [Compound 3g, N-(1,4-dioxo-1,4-dihydronaphthalen-2-yl)benzamide]",,34,,,17000,500
O=C(O)c1coc2ccccc2c1=O,,,> 1000,,> 100000,
"CC(C)NC1=CC(=O)c2ccccc2C1=O [Compound 2d, 2-(isopropylamino)naphthalene-1,4-dione]",,27,1700,46000,,
"O=C1C=C(Nc2ccccc2)C(=O)c2ccccc21 [Compound 2i, 2-(phenylamino)naphthalene-1,4-dione]",,109,,7000,,64
"COC(=O)NC1=CC(=O)c2ccccc2C1=O [Compound 3c, methyl(1,4-dioxo-1,4-dihydronaphthalen-2-yl)carbamate]",5000,72,69,,,

SMILES,CC50 at 24 h [1] [nM],Safety Index TC50/PC50 (HT22 cells [2]),EC50 (HT22 cells [3]; [4]) [nM],CC50 (HT22 cells [2]) [nM],"CC50 at 24 h [1, 5] [nM]","EC50 (HT22 cells [3]; HT-22, 24 h) [nM]"
"CC1=C(N)C(=O)c2ccccc2C1=O [Compound 1e, 2-amino-3-methyl-1,4-naphthoquinone]",,31,1740,54000,,
"O=C1C=C(NCc2cccnc2)C(=O)c2ccccc21 [Compound 2n, 2-((pyridin-3-ylmethyl)amino)naphthalene-1,4-dione]",,172,215,37000,,
O=C1C=C(NCCc2ccccc2)C(=O)c2ccccc21 [Compound 2l],,171,584,> 100000,,
"CN(Cc1ccccc1)C1=CC(=O)c2ccccc2C1=O [Compound 2k, 2-(benzyl(methyl)amino)naphthalene-1,4-dione]",,781,128,> 100000,,
"CCNC1=CC(=O)c2ccccc2C1=O [Compound 2b, 2-(ethylamino)naphthalene-1,4-dione]",,106,761,81000,,
"Cc1ccc(CNC2=CC(=O)c3ccccc3C2=O)cc1 [Compound 2r, 2-((4-methylbenzyl)amino)naphthalene-1,4-dione]",,"1,515",,> 100000,,66
"O=C1C=C(NCc2cccc(C(F)(F)F)c2)C(=O)c2ccccc21 [Compound 2u, 2-((3-(trifluoromethyl)benzyl)amino)naphthalene-1,4-dione]",,"2,222",45,> 100000,,
"O=C1C=C(NCc2ccccn2)C(=O)c2ccccc21 [Compound 2o, 2-((pyridin-2-ylmethyl)amino)naphthalene-1,4-dione]",,54,933,50000,,
"O=C1C=C(NC2CCCC2)C(=O)c2ccccc21 [Compound 2f, 2-(cyclopentylamino)naphthalene-1,4-dione]",,108,409,44000,,
"O=C1C=C(NCC2CCCCC2)C(=O)c2ccccc21 [Compound 2g, 2-((cyclohexylmethyl)amino)naphthalene-1,4-dione]",,"1,852",54,> 100000,,
"O=C1C=C(NCc2ccc(Cl)cc2)C(=O)c2ccccc21 [Compound 2p, 2-((4-chlorobenzyl)amino)naphthalene-1,4-dione]",,"1,695",59,> 100000,,
O=C(O)c1cc(=O)c2ccccc2o1,,,> 1000,,> 100000,
"O=C1C=C(NCc2ccc(Cl)c(Cl)c2)C(=O)c2ccccc21 [Compound 2v, 2-((3,4-dichlorobenzyl)amino)naphthalene-1,4-dione]",,"2,174",46,> 100000,,
"COC(=O)c1ccc(CNC2=CC(=O)c3ccccc3C2=O)cc1 [Compound 2t, methyl 4-(((1,4-dioxo-1,4-dihydronaphthalen-2-yl)amino)methyl)benzoate]",,431,232,> 100000,,
O=C1C=C(O)C(=O)c2ccccc21 [Compound 1g],,100,,> 100000,,1000
"COc1ccc(CNC2=CC(=O)c3ccccc3C2=O)cc1 [Compound 2s, 2-((4-methoxybenzyl)amino)naphthalene-1,4-dione]",,877,114,> 100000,,
"CNC1=CC(=O)c2ccccc2C1=O [Compound 2a, 2-(methylamino)naphthalene-1,4-dione]",,74,1350,> 100000,,
